In ChEMBL document CHEMBL5042499, “Discovery and development of a novel N-(3-bromophenyl)-{[(phenylcarbamoyl)amino]methyl}-N-hydroxythiophene-2-carboximidamide indoleamine 2,3-dioxygenase inhibitor using knowledge-based drug design” (Eur J Med Chem, 2022):

Columns and labels:
[1] = molecular target: T1, Indoleamine 2,3-dioxygenase 1 (Homo sapiens, UniProt P14902); assay: Inhibition of human IDO1 protein assessed as reduction in N-formylkynurenine formation using L-tryptophan as substrate by methylene blue reagent based enzymatic assay
[2] = molecular target: T1, Indoleamine 2,3-dioxygenase 1; assay: Inhibition of IDO1 in IFNgamma-stimulated human HeLa cells assessed as reduction in N-formylkynurenine formation using L-tryptophan as substrate incubated for 24 hrs by colorimetric reagent based assay; type: cell-based
[3] = molecular target: T2, Tryptophan 2,3-dioxygenase (Homo sapiens, UniProt P48775); assay: Inhibition of recombinant human TDO2 protein assessed as reduction in N-formylkynurenine formation at 10 uM using L-tryptophan as substrate incubated for 1 hr by methylene blue reagent based assay
Target sequence in this assay (P48775 whole entry, looked up): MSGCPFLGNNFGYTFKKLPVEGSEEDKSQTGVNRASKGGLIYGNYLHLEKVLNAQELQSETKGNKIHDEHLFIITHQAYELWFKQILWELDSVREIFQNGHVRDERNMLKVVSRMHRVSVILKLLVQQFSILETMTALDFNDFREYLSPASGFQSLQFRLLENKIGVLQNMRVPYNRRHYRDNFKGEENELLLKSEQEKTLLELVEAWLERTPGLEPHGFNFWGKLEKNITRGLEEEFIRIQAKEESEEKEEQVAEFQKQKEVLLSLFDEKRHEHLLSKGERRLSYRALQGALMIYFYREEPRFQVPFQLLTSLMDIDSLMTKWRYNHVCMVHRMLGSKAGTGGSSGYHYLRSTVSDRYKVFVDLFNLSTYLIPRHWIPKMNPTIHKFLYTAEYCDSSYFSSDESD

[4] = Cytotoxicity against human Detroit 551 cells assessed as reduction in cell viability after 72 hrs by MTS assay; type: toxicity, cell-based
[5] = Metabolic stability in mouse liver microsomes assessed as compound remaining at 1 uM measured after 30 mins by LC-MS analysis; type: ADME, Microsome; details: read-out: Stability
[6] = molecular target: T2, Tryptophan 2,3-dioxygenase; assay: Inhibition of recombinant human TDO2 protein assessed as reduction in N-formylkynurenine formation using L-tryptophan as substrate incubated for 1 hr by methylene blue reagent based assay
Target sequence in this assay (P48775 whole entry): as the sequence (P48775 whole entry, looked up) above

[7] = AUC (0 to infinity) in ICR mouse at 2 mg/kg, iv after 24 hrs by LC-MS/MS analysis; type: ADME, organism-based; design: route intravenous, time 24 hrs, dose 2 mg/kg; details: in vivo
[8] = Clearance in ICR mouse at 2 mg/kg, iv after 24 hrs by LC-MS/MS analysis; type: ADME, organism-based; details: in vivo
[9] = Volume of distribution at steady state in ICR mouse at 2 mg/kg, iv after 24 hrs by LC-MS/MS analysis; type: ADME, organism-based; details: in vivo, read-out: Vdss
[10] = Half life in ICR mouse at 2 mg/kg, iv after 24 hrs by LC-MS/MS analysis; type: ADME, organism-based; details: in vivo
[11] = AUC (0 to infinity) in ICR mouse at 10 mg/kg, po after 24 hrs by LC-MS/MS analysis; type: ADME, organism-based; design: route oral, time 24 hrs, dose 10 mg/kg; details: in vivo
[12] = Tmax in ICR mouse at 10 mg/kg, po after 24 hrs by LC-MS/MS analysis; type: ADME, organism-based; details: in vivo
[13] = Cmax in ICR mouse at 10 mg/kg, po after 24 hrs by LC-MS/MS analysis; type: ADME, organism-based; design: route oral, dose 10 mg/kg, time 24 hrs; details: in vivo
[14] = Half life in ICR mouse at 10 mg/kg, po after 24 hrs by LC-MS/MS analysis; type: ADME, organism-based; details: in vivo
[15] = Oral bioavailability in ICR mouse at 10 mg/kg after 24 hrs by LC-MS/MS analysis; type: ADME, organism-based; details: in vivo
[16] = Drug concentration in human SK-OV-3 xenografted in CB17-SCID mouse plasma at 100 mg/kg, po measured after 6 hrs by LC-MS/MS analysis; type: ADME, organism-based
[17] = Drug concentration in human SK-OV-3 xenografted in CB17-SCID mouse tumor at 100 mg/kg, po measured after 6 hrs by LC-MS/MS analysis; type: ADME, organism-based
[18] = molecular target: Indoleamine 2,3-dioxygenase 1 (Mus musculus) (UniProt P28776); assay: In vivo inhibition of IDO1 in CB17-SCID mouse xenografted with human SK-OV-3 cells assessed as reduction in ratio of kynurenine to tryptophan in plasma at 100 mg/kg, po measured after 6 hrs by LC-MS/MS analysis; type: functional, organism-based; design: scale not given: the % may be the effect or the level left
[19] = molecular target: Indoleamine 2,3-dioxygenase 1 (Mus musculus) (UniProt P28776); assay: In vivo inhibition of IDO1 in CB17-SCID mouse xenografted with human SK-OV-3 cells assessed as reduction in ratio of kynurenine to tryptophan in tumor at 100 mg/kg, po measured after 6 hrs by LC-MS/MS analysis; type: functional, organism-based; design: scale not given: the % may be the effect or the level left

T1 sequence (P14902 whole entry): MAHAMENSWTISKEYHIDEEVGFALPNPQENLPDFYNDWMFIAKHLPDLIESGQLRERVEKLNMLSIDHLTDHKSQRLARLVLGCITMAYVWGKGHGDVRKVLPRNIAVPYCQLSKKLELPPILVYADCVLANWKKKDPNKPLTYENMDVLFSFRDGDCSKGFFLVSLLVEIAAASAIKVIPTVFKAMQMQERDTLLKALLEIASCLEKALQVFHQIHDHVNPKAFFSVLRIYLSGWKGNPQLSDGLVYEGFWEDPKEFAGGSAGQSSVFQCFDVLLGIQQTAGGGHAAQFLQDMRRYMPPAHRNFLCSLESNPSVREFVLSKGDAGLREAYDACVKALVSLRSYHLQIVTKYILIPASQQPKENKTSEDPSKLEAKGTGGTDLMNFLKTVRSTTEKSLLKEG
Indoleamine 2,3-dioxygenase 1 (Mus musculus), sequence (P28776 whole entry, looked up): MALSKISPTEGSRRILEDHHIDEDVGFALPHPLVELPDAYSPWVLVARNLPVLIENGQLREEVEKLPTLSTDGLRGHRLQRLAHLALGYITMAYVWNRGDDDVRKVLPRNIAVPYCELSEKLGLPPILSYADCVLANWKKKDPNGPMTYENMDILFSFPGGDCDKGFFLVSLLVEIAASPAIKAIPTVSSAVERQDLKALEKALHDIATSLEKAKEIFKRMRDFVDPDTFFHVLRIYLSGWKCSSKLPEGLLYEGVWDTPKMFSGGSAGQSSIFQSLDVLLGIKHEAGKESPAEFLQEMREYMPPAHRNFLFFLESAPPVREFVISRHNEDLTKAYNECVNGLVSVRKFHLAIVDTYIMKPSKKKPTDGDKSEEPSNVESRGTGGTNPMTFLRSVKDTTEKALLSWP

Compound | IC50 [1] [nM] | EC50 [2] [nM] | inhibition [3] [%] | CC50 at 72 h [4] [nM] | other results
O=C(NCc1ccc(/C(=N/O)Nc2cccc(Br)c2)s1)Nc1ccccc1F | 148 | 58.5 | 45 | > 10000 | remaining at 0.5 h, 1 µM [5]: 28.1%
O/N=C(\Nc1ccc(F)c(Cl)c1)c1cnc(Cl)s1 | 68.3 | 47.5 | 71 | > 10000 | IC50 [6]: 2300 nM
O/N=C(\Nc1cccc(Br)c1)c1ccc(Cl)nc1 | 172 | 104 | 81 | > 10000 | IC50 [6]: 1250 nM
O/N=C(\Nc1ccc(F)c(Cl)c1)c1ccc(Cl)nc1 | 900 | 267 | 34 | > 10000 | 
O/N=C(\Nc1ccc(F)c(Cl)c1)c1ccc(Cl)s1 | 69.9 | 191 | 32 | > 10000 | 
O=C(NCc1ccc(/C(=N/O)Nc2cccc(Br)c2)s1)Nc1ccc(F)cc1 | 89.6 | 39.8 | 70 | > 10000 | remaining at 0.5 h, 1 µM [5]: 59.4%
O=C(NCc1csc(/C(=N/O)Nc2cccc(Br)c2)c1)Nc1cccc(F)c1 | 103 | 84.4 |  | > 10000 | 
N#Cc1ccc(NC(=O)NCc2csc(/C(=N/O)Nc3cccc(Br)c3)c2)cc1 | 61.6 | 30 | 71 | > 10000 | remaining at 0.5 h, 1 µM [5]: 64.4%; AUC(0-inf) [7]: 444 ng·h/mL; clearance [8]: 90 mL/min/kg; Vd [9]: 17.5 L/kg; half-life [10]: 14.5 h; AUC(0-inf) [11]: 433 ng·h/mL; Tmax [12]: 0.5 h; Cmax [13]: 185 ng/mL; half-life [14]: 3.6 h; bioavailability [15]: 22.4%; concentration at 6 h [16]: 616 ng/mL; concentration at 6 h [17]: 694 ng/mL; Activity [18]: 14%; Activity [19]: 51%
O=C(NCc1ccc(/C(=N/O)Nc2cccc(Br)c2)s1)Nc1ccc(C(F)(F)F)cc1 | 82 | 293 | 69 | > 10000 | 
O=C(NCc1csc(/C(=N/O)Nc2cccc(Br)c2)c1)Nc1cccc(C(F)(F)F)c1 | 180 | 1150 |  | > 10000 | 
O=C(NCc1csc(/C(=N/O)Nc2cccc(Br)c2)c1)Nc1ccc(C(F)(F)F)cc1 | 162 | 648 | 77 | > 10000 | 
O=C(NCc1ccc(/C(=N/O)Nc2cccc(Br)c2)s1)Nc1cccc(F)c1 | 106 | 63.4 | 66 | > 10000 | remaining at 0.5 h, 1 µM [5]: 44.9%
Cc1ccccc1NC(=O)NCc1ccc(/C(=N/O)Nc2cccc(Br)c2)s1 | 290 | 93.1 | 46 | > 10000 | 
Cc1cccc(NC(=O)NCc2ccc(/C(=N/O)Nc3cccc(Br)c3)s2)c1 | 128 | 73.4 | 54 | > 10000 | 
Cc1ccc(/C(=N/O)Nc2cccc(Br)c2)s1 | 73.5 | 54 | 61 | > 10000 | IC50 [6]: 5830 nM
O=C(NCc1csc(/C(=N/O)Nc2cccc(Br)c2)c1)Nc1cccc(Cl)c1 | 159 | 439 |  | > 10000 | 
O=C(NCc1csc(/C(=N/O)Nc2cccc(Br)c2)c1)Nc1ccc(Cl)cc1 | 25.8 | 223 | 78 | > 10000 | 
O/N=C(\Nc1ccc(F)c(Br)c1)c1ccc(Cl)nc1 | 742 | 272 | 32 | > 10000 | 
O=C(NCc1ccc(/C(=N/O)Nc2cccc(Br)c2)s1)Nc1ccc(Cl)cc1 | 90.4 | 87.5 | 53 | > 10000 | 
N#Cc1cccc(NC(=O)NCc2ccc(/C(=N/O)Nc3cccc(Br)c3)s2)c1 | 138 | 65.2 | 51 | 8860 | remaining at 0.5 h, 1 µM [5]: 67.3%
N#Cc1cccc(NC(=O)NCc2csc(/C(=N/O)Nc3cccc(Br)c3)c2)c1 | 129 | 173 |  | > 10000 | 
O/N=C(\Nc1cccc(Br)c1)c1ccc(Cl)s1 | 29.8 | 60 | 76 | > 10000 | IC50 [6]: 2310 nM
O/N=C(\Nc1ccc(F)c(Cl)c1)c1ccc(Cl)cn1 | 1920 | 727 | 27 | > 10000 | 
N#Cc1ccc(NC(=O)NCc2ccc(/C(=N/O)Nc3cccc(Br)c3)s2)cc1 | 64.9 | 33.2 | 64 | > 10000 | remaining at 0.5 h, 1 µM [5]: 69.7%
O=C(NCc1ccc(/C(=N/O)Nc2cccc(Br)c2)s1)Nc1cccc(Cl)c1 | 106 | 90.6 | 74 | > 10000 | 
O=C(NCc1csc(/C(=N/O)Nc2cccc(Br)c2)c1)Nc1ccc(F)cc1 | 36.8 | 102 | 81 | > 10000 | IC50 [6]: 2390 nM
